Test results from patent US20210292807A1, “METHOD FOR TESTING ANTIMICROBIAL SUSCEPTIBILITY” (priority 2017, published 2021).

Test system: Klebsiella isolates
Experiment: Acoustic flow cytometry-assisted susceptibility test (FAST), MICFAST and S/NS, Klebsiella isolates
Assay type: cell-based, Klebsiella pneumoniae, Klebsiella oxytoca
Method: A 1 mL aliquot of bacterial suspension was centrifuged, washed and resuspended in 1 mL filtered Hank's Buffered Salt Solution (HBSS; comprising about 0.137 M NaCl, about 5.4 mM KCl, about 0.25 mM Na2HPO4, about 0.1 g Glucose, about 0.44 mM KH2PO4, 1.3 mM CaCl2), 1.0 mM MgSO4, about 1.3 mM CaCl2), 1.0 mM MgSO4, and about 4.2 mM NaHCO3) and diluted in series (e.g., in a 1:10 serial dilution) to a final 1:1000 dilution.
One μL (microliter) of SYTO 9 stain (e.g., ThermoFisher Scientific) working stock solution was added to the final dilution at a final concentration of 5 μM and incubated for 5 minutes before counting bacterial events by acoustic flow cytometer (AFC) (Attune, ThermoFisher, Eugene, Oreg., USA), which was used to prepare a standardised inoculum density for susceptibility testing.
An aliquot of bacterial suspension was added to 50 mL centrifuge tubes (Corning, N.Y.) containing 9 mL of pre-warmed (37° C.) filtered MHB to produce a final density of 5×10^5-1×10^6 bacteria per mL. This suspension was incubated at 37° C. with shaking at 100 RPM for 30 minutes to obtain an actively dividing culture. An aliquot of antibiotic working solution from the previously described dilution series (appropriate to the concentration tested) was then added to each tube before a further 30-minute incubation with shaking, during which time a microbroth dilution (MBD) plate was prepared for overnight incubation at 37° C. as previously described in Clinical and Laboratory Standards Institute (2015) Performance Standards for Antimicrobial Susceptibility Testing: Informational Supplement. CLSI document M100-S25. Clinical and Laboratory Standards Institute, 950, West Valley Road, Suite 2500, Wayne, Pa., 19087, USA.
One millilitre of bacterial suspension from each antibiotic concentration was harvested by centrifugation at 7800×g for 5 minutes, washed and diluted 1:10 in filtered HBSS in a light-impermeable microcentrifuge tube, then stained with SYTO 9 stain at a final concentration of 5 μM, and incubated for 5 min before AFC sampling. Hoechst 33342 dye (NucBlue, Thermo Fisher Scientific, Eugene, Oreg., USA) and a SYTO 9/propidium iodide (PI) combination (Thermo Fisher Scientific) were used in a series of replicate experiments.
The acoustic flow cytometer employed was Attune acoustic flow cytometer (Thermo Fisher Scientific), having installed therein a 488 nm blue laser with a 530/30 nm filter on the photomultiplier tube for measuring fluorescence of cells assayed. Alternatively, the Attune NxT acoustic flow cytometer (Thermo Fisher Scientific) can be employed. AFC was calibrated at the beginning of each acquisition session using fluorescently labelled size calibration beads, in accordance with the manufacturer's instructions (ThermoFisher Scientific). The AFC settings were as follows: Forward Scatter (FSC) voltage 3100, FSC threshold 4×1000 AND, blue laser 1 (BL1—530/30 nm) voltage 1900, BL1 threshold 1×1000 AND, high sensitivity, flow rate 25 μL/minute, and an acquisition volume of 125 μL. Acquisition was halted after either collection of 20,000 events across all gates, or after 3 minutes, with each sample acquired in technical triplicate.
Collected data was exported in the FCS 3.0 file format and analysed in Flow v10.0 (FlowJo LLC, Ashland, Oreg., USA) by a single user, blinded to the MIC results by BMD (MICBMD).
Subsequent to quantitative MICFAST determination, the acoustic flow cytometer data were re-analysed in silico to produce a limited sub-set for qualitative susceptibility determination. The six antibiotic dilutions (0 mg/L, 0.25 mg/L, 1 mg/L, 2 mg/L, 4 mg/L and 16 mg/L) most relevant to qualitative susceptibility assessment were used. In silico analysis was restricted to the first technical triplicate of each recorded sample. Gating strategies remained consistent, with the addition of a gate restricting analysis to only those events recorded in the first 60 seconds of acquisition.

[1] = isolate 3000770, England, NDM-1
[2] = isolate 3040820, England, pAmpC
[3] = isolate ATCC BAA 1705, USA, KPC
[4] = isolate K16, Australia, IMP - 4
[5] = isolate K23, Australia, IMP - 4
[6] = isolate KS1, Sri Lanka, OXA-181
[7] = isolate KS2, Sri Lanka, OXA-181
[8] = isolate KS17, Sri Lanka, OXA-181
[9] = isolate KS23, Sri Lanka, OXA-181

C[C@@H](O)[C@H]1C(=O)N2C(C(=O)O)=C(S[C@@H]3CN[C@H](C(=O)N(C)C)C3)[C@H](C)[C@H]12 [meropenem]
≤0.25 mg/L: MICFAST (isolate 2440606, England) | MICFAST (isolate 2880622, England) | MICFAST [2] | MICFAST (isolate A1, Norway) | MICFAST (isolate A2, Norway) | MICFAST (isolate A3, Norway) | MICFAST (isolate A4, Norway) | MICFAST (isolate A7, Norway) | MICFAST (isolate A13, Norway) | MICFAST (isolate A15, Norway) | MICFAST (isolate A16, Norway) | MICFAST (isolate ATCC 700603, USA) | MICFAST (isolate ATCC BAA 1706, USA)
0.5 mg/L: MICFAST (isolate 2890369, England) | MICFAST (isolate 2980639, England) | MICFAST [5]
64 mg/L: MICFAST [8] | MICFAST [9]
16 mg/L: MICFAST (isolate A20, Norway, NDM-1) | MICFAST [7]
2 mg/L: MICFAST [4] | MICFAST [6]
>256 mg/L: MICFAST (isolate K8, Australia, NDM-1)
NS (NS = MIC >2 mg/L): FAST S/NS (isolate 2880654, England, KPC) | FAST S/NS [1] | FAST S/NS (isolate 3080800, England, KPC) | FAST S/NS (isolate A20, Norway, NDM-1) | FAST S/NS [3] | FAST S/NS (isolate K1, Australia, OXA-181) | FAST S/NS (isolate K2, Australia, OXA-181) | FAST S/NS (isolate K8, Australia, NDM-1) | FAST S/NS (isolate K14, Australia, KPC) | FAST S/NS [7] | FAST S/NS [8] | FAST S/NS [9] | FAST S/NS (isolate N17, Sweden, NDM-1)
8 mg/L: MICFAST [1] | MICFAST [3]
S (S = MIC ≤2 mg/L): FAST S/NS (isolate 2440606, England) | FAST S/NS (isolate 2880622, England) | FAST S/NS (isolate 2890369, England) | FAST S/NS (isolate 2980639, England) | FAST S/NS [2] | FAST S/NS (isolate A1, Norway) | FAST S/NS (isolate A2, Norway) | FAST S/NS (isolate A3, Norway) | FAST S/NS (isolate A4, Norway) | FAST S/NS (isolate A7, Norway) | FAST S/NS (isolate A13, Norway) | FAST S/NS (isolate A15, Norway) | FAST S/NS (isolate A16, Norway) | FAST S/NS (isolate ATCC 700603, USA) | FAST S/NS (isolate ATCC BAA 1706, USA) | FAST S/NS [4] | FAST S/NS [5] | FAST S/NS [6]
32 mg/L: MICFAST (isolate 2880654, England, KPC) | MICFAST (isolate 3080800, England, KPC) | MICFAST (isolate K1, Australia, OXA-181) | MICFAST (isolate K2, Australia, OXA-181) | MICFAST (isolate N17, Sweden, NDM-1)
